Tests used:
Tet1 = assay: RT-PCR of Tet1 mRNA in treated MEFs; format: cell-based, mouse; conditions: versus vehicle
Description: The up-regulation of Tet1 is intriguing, as this is a gene that converts 5-methylcytosine to 5-hydroxymethylcytosine and may be involved in active DNA demethylation.
(§1) RT-PCR analysis: Total RNA was purified with Trizol reagent (Invitrogen). Reverse transcription was performed with 1 μg of RNA using Omniscript® Reverse Transcription Kit (Qiagen). Quantitative PCR was performed using iTaq SYBR Green Supermix with Rox (Bio-rad) in Applied Biosystem Step one plus real-time PCR system. […]

luciferase = luciferase (Photinus pyralis, UniProt P08659); conditions: read-out: EC50 of luciferase inhibition; at 40° C., loss of enzymatic activity as measurement; cited from earlier work
endogenous Nanog = assay: RT-PCR of endogenous Nanog mRNA in treated MEFs; format: cell-based, mouse; conditions: versus vehicle
Description: (§2) MEFs were treated with vehicle control or OAC 1 to test whether OAC 1 activates endogenous Oct4 and Nanog gene transcription. […] Oct4, Sox2, and Nanog are central to the transcriptional regulatory hierarchy for ESC pluripotency, forming the core transcriptional regulatory circuitry in ESCs (37). […] OAC1 activated Sox2 mRNA expression, along with Oct4 and Nanog (FIG. 61).
as §1

Sox2 = assay: RT-PCR of Sox2 mRNA in treated MEFs; format: cell-based, mouse; conditions: versus vehicle
Description: as §2, §1

[1] = test system: human fibroblast cells (IMR90); assay: human iPSC derivation from 4F (OSKM)-transduced IMR90 fibroblasts; format: cell-based
Description: It has been shown that compound OAC1 (Oct4-activating compound I) and two of its structural analogs OAC2 and OAC3 can enhance reprogramming efficiency, when added to the reprogramming mixture along with the four transcription factors, Oct4, Sox2, Klf4, and c-Myc (OSKM), in mouse system. The OAC compounds were tested to determine if they can enhance reprogramming efficiency in human system. The reprogramming process was performed as described in the diagram (FIG. 14a). Briefly, human fibroblast cells (IMR90) were induced to reprogram into induced pluripotent stem cells (iPSCs) using the four reprogramming factors (4F), OSKM. The day when the cells were transduced with the four reprogramming factors was referred to as day 0. Cells were cultured in IMR90 media for six days. On day 6, the transduced cells were split and seeded onto feeders. On day 7, IMR90 culture media was changed to hESC culture media and started compound treatment. Compound treatment was lasted for one week. Cells were monitored for the appearance of human embryonic stem cell (ESC)-like colonies. On day 9, several small human ESC-like colonies appeared in both 4F+OAC1 and 4F+OAC2-treated cells, however, human ESC-like colonies were not observed in 4F+vehicle (4F)-treated cells until day 11. To determine the effect of OAC on the efficiency of human iPSC derivation, the number of human ESC-like colonies were counted under all three conditions at day 18. Both OAC 1 and its structural analog OAC2 increased the number of human ESC-like colonies more than two-fold (FIG. 14b, c). The human ESC-like colonies were picked from either 4F or 4F+OAC-treated cells and expanded under human ESC culture conditions. These cells were able to expand and stably produce human iPSC clones with characteristic human ESC-like morphology (FIG. 14d).

Sequence of luciferase (P08659 whole entry): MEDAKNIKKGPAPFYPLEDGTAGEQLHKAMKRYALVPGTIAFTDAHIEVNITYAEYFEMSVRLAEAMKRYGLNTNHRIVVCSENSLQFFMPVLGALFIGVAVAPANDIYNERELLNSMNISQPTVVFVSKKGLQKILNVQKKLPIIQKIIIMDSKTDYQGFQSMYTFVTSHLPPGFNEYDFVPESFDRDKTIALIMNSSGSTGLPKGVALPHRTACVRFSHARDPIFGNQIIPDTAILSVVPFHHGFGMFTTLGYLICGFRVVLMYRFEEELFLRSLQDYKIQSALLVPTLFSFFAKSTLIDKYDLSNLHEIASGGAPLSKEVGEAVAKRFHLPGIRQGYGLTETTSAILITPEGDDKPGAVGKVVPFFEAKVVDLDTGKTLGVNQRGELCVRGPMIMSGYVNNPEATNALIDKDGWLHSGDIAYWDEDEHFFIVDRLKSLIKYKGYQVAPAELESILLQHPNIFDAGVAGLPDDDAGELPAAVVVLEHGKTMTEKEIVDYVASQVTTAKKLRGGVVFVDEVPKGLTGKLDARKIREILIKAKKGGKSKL

O=C(Nc1cc2cc[nH]c2cn1)c1ccccc1 [OAC1, N-(1H-6-azaindol-5-yl)benzamide]
Tet1 mRNA expression (Tet1): up-regulated | EC50 (luciferase): 6.37 µM | endogenous Nanog mRNA expression (endogenous Nanog): activated | Sox2 mRNA expression (Sox2): activated | day at which human ESC-like colonies appeared ([1]; IMR90, 4F+compound, day 0 = transduction, 4F+vehicle day 11): 9 days | increase in the number of human ESC-like colonies ([1]; IMR90, day 18, versus 4F): more than two

Reference: US8962322B2, “Enhancers of induced pluripotent stem cell reprogramming” (City of Hope, priority 2012, dated 2015)
